Assays:
[1] = test system: apoptotic Jurkat cells; assay: Inhibition by the TG2 inhibitor MDC of protein crosslinking and 3B9 binding in cisplatin-treated Jurkat cells; assay type: cell-based, human; conditions: 20 μg/mL cisplatin
Protocol: FIG. 18 depicts that La antigen is crosslinked during apoptosis. (A) Jurkat cells incubated in 20 μg/mL cisplatin were removed at specified time points and incubated for 10 min. in 1% Triton X-100 solution before 3B9 binding analysis. Data are presented as density plots of staining with 3B9 vs. 7-AAD. (B) Immunoblots of cell lysates of control and cisplatin-treated Jurkat cells were probed with 3B9 for expression of La (top panels) or actin as a loading control (bottom panels) at specified times. (C) Jurkat cells incubated in the absence or presence of increasing concentrations of cisplatin were labeled with cadaverine-biotin added at 100 μM for 48 h. Cells were stained with strepatavidin-Alexa488 and analyzed by flow cytometry. Data shown are MFI±SEM (n=3). […] Cells were analyzed at specified times (24 □, 48 ? and 72 h ▪) for sulforhodamine 101 staining. […]
Transglutaminase 2 (TG2)-mediated protein-protein crosslinking in apoptotic cells was investigated using a modification of a previously described method. […] Samples were vortexed and incubated for 5 min. before analysis by flow cytometry where fluorescence from Sytox Green and sulforhodamine were detected using FL-1 and FL-3, respectively. The degree of crosslinking in apoptotic cells was calculated as the ratio of the MFI of sulforhodamine staining in apoptotic cells to the MFI in control cells (protein crosslinking ratio). […]

[2] = test system: Jurkat cells; assay: Apomab-specific binding to cisplatin-treated Jurkat cells with TSA; assay type: cell-based, human; conditions: TSA added to 10 μg/mL cisplatin, 48 h
Protocol: FIG. 36 depicts that the histone deacetylase inhibitor (HDACi) trichostatin A (TSA) exerts dose-dependent synergy with cisplatin to augment Apomab-specific binding to dead Jurkat cells. Jurkat cells were incubated for 48 h with 10 μg/mL cisplatin together with increasing concentrations of TSA. Cells were subjected to indirect immunofluorescence staining using Apomab or its Sal5 isotype control mAb and viability was assessed using 7-AAD. Apomab-specific binding was calculated as the Net MFI after gating on 7-AAD^+ events. Data are presented as the mean±SEM from two separate experiments. (A) Apomab-specific binding to cisplatin-treated Jurkat cells is plotted as a function of TSA concentration. […]
(§1) Apoptosis or cell death was induced by adding cytotoxic drugs to culture media at the specified concentrations. […] Control (untreated) cells had ≧90% viability determined by PI or trypan blue staining (data not shown). […]
Indirect immunofluorescence staining was performed using purified mouse antibodies at 5 μg/mL for 30 min. at room temperature (RT) in PBS followed by Alexa488-conjugated anti-mouse IgG at 2 μg/mL for 30 min. at RT in PBS. […] Cell viability was assessed by the exclusion of PI (0.5 μg/mL) and detected using the FL-2 channel (585 nm filter) or by the exclusion of 7-AAD (2 μg/mL for 15 min. at RT) and detected using the FL-3 channel (>650 nm filter). […]

[3] = test system: PANC-1 cells; assay: MTS proliferation assay with TSA and gemcitabine; assay type: cell-based, human; conditions: TSA alone
Protocol: FIG. 40 depicts that gemcitabine and TSA synergise to reduce proliferation rates among PANC-1 cells in vitro. PANC-1 cells (2×10^4 cells) were seeded in flat bottom 96-well plates overnight using phenol-free RPMI-1640 medium containing 10% FCS (medium). A serial dilution of 2×10^4 cells was used to construct a standard curve for the MTS assay. Triplicate wells were incubated with increasing concentrations of TSA (nM) with or without the addition of increasing concentrations of gemcitabine. Three identical plates were incubated for 24, 48 or 72 h then medium was decanted and fresh medium (100 μL) containing 20 μL MTS/PMS substrate was added to all wells. Assays were performed according to the manufacturer's instructions. The change in the absorbance reading over time was calculated for each condition in units of change per 12 h (upper panel), which was converted to units of cell number change per 12 h (lower panel) using a standard curve of the absorbance reading as a function of […] (r^2=0.99).

[4] = test system: PANC-1 cells; assay: Cell death (7-AAD) and 3B9-specific binding after gemcitabine and TSA; assay type: cell-based, human; conditions: TSA alone; data not shown
Protocol: FIG. 15 depicts that 3B9 binding to dead PANC-1 cells is augmented after combination treatment with gemcitabine and TSA produced additive cytotoxicity and DNA-damaging effects. PANC-1 cells were incubated with increasing concentrations of gemcitabine in the absence (clear columns) or presence of 100 ng/mL (hatched columns) or 200 ng/mL (filled columns) of TSA. Analysis was done for viability using 7-AAD (A), 3B9-specific binding (B) and DNA damage using γH2AX staining (C). Data are presented as mean±SEM from three independent experiments. Photomicrographs show PANC-1 cells treated with gemcitabine and TSA (+) or not (−), which were stained with γH2AX-specific mAb and 7-AAD (D).
PANC-1 cells (2×10^4 cells) were seeded in flat bottom 96-well plates overnight using phenol-free RPMI-1640 medium containing 10% FCS (medium). Cells were incubated with the specified concentrations of gemcitabine or TSA singly or in combination. Cells were collected (from media and EDTA detached adherent cells) and subjected to indirect immunofluorescence staining with Apomab or its Sal5 isotype control mAb and assessed for viability with 7-AAD staining. […]
as §1

[5] = test system: Raji; assay: Binding of La-specific mAb (3B9-FITC) to apoptotic human cancer cell lines, dual-colour flow cytometry; conditions: 2 μM staurosporine, 20 μg/mL etoposide or 0.1 μg/mL vincristine, 3B9-FITC and PI

## CN(C)c1cccc2c(S(=O)(=O)NCCCCCN)cccc12 [MDC, monodansylcadaverine]
[1]
  effect on protein crosslinking (sulforhodamine crosslinking ratio): dose-dependent inhibitory effect

## CC(/C=C/C(=O)NO)=C\[C@@H](C)C(=O)c1ccc(N(C)C)cc1 [TSA, trichostatin A]
[2]
  Apomab-specific binding to dead Jurkat cells: dose-dependent increase
[3]
  effect on proliferation of PANC-1 cells: inhibited proliferation
[4]
  3B9 binding in comparison with control PANC-1 cells: did not alter 3B9 binding

## CC[C@]1(O)C[C@H]2CN(CCc3c([nH]c4ccccc34)[C@@](C(=O)OC)(c3cc4c(cc3OC)N(C=O)[C@H]3[C@@](O)(C(=O)OC)[C@H](OC(C)=O)[C@]5(CC)C=CCN6CC[C@]43[C@@H]65)C2)C1 [Vincristine, vincristine]
[5]
  percentages of PI+ and 3B9+ events after subtraction of control (PI+ and Sal5+) events: 9.8%
